# Experimental data: ChEMBL document CHEMBL1146433, “Bripiodionen, a new inhibitor of human cytomegalovirus protease from Streptomyces sp. WC76599” (J Nat Prod, 1997)
# Experiments:
# M109 = test: Cytotoxicity against mouse M109 cells after 72 hrs by XTT assay; format: functional, cell-based; details: M109, 72 h
# [1] = Inhibition of HCMV protease; parameters: species or system Human betaherpesvirus 5
compound,measurement,setting,value
CC(C)C1O/C(=C2/C(=O)NC(CC(N)=O)C2=O)C=CC1C (configuration not stated) [BRIPIODIONEN],IC50,M109,34 µM
same,IC50,[1],30 µM
